Values of other authors as cited in patent publication US20050020810A1, “Peptides which target tumor and endothelial cells, compositions and uses thereof” (priority 2002, published 2005).

What was measured:
MatLyLu cells = settings: rat model
CT26 colon cancer = settings: in combination with 5-FU infusion

Ac—PHSCN—NH2
metastasis of MatLyLu cells (MatLyLu cells): completely inhibits
DU145 invasion (DU145): completely inhibits
survival (CT26 colon cancer): improved survival
